#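 How tested: cells in 96-well plates exposed to compound for 48 hours at five concentrations. TGI: total growth inhibition.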
# Columns and labels:
# Assay in all cases: inhibition of tumour cell growth, NCI panel, 48 h
# HCT-116 colon = tested on: HCT-116 colon
# NCI-H460 lung = tested on: NCI-H460 lung
# NCI-H23 lung = tested on: NCI-H23 lung
# RPMI-8226 leukemia = tested on: RPMI-8226 leukemia
# MDA-MB-231 breast = tested on: MDA-MB-231 breast
# SF-295 CNS = tested on: SF-295 CNS
# UACC-62 melanoma = tested on: UACC-62 melanoma
# EKVX NSCLC = tested on: EKVX NSCLC
# 786-0 renal = tested on: 786-0 renal
# OVCAR-3 ovarian = tested on: OVCAR-3 ovarian
# SK-OV-3 ovarian = tested on: SK-OV-3 ovarian
# MALME-3M melanoma = tested on: MALME-3M melanoma
# MOLT-4 leukemia = tested on: MOLT-4 leukemia
# UO-31 renal = tested on: UO-31 renal
# CCRF-CEM leukemia = tested on: CCRF-CEM leukemia
Compound,TGI (HCT-116 colon),TGI (NCI-H460 lung),TGI (NCI-H23 lung),TGI (RPMI-8226 leukemia),TGI (MDA-MB-231 breast),TGI (SF-295 CNS),TGI (UACC-62 melanoma),TGI (EKVX NSCLC),TGI (786-0 renal),TGI (OVCAR-3 ovarian),TGI (SK-OV-3 ovarian),TGI (MALME-3M melanoma),TGI (MOLT-4 leukemia),TGI (UO-31 renal),TGI (CCRF-CEM leukemia)
CCN(CC)CCN1CCN=c2c3cc(OC)ccc3n3cnc4ccc1c2c43,2.84 µM,0.724 µM,4.61 µM,1.3 µM,2.33 µM,2.32 µM,7.3 µM,3.21 µM,1.72 µM,3.26 µM,5.16 µM,2.74 µM,0.999 µM,4.42 µM,1.71 µM
CCOP(=O)(CCC(O)CNc1nc(N)nc(Cl)c1N=Nc1ccc(Cl)cc1)OCC (stereo unspecified),40.3 µM,26.1 µM,37.4 µM,42.7 µM,> 100 µM,38 µM,30.2 µM,40.6 µM,48.4 µM,25.3 µM,58.9 µM,21.4 µM,37.1 µM,16.6 µM,46.5 µM
C=C(CO)[C@H]1CC/C(C)=C/CC/C(C)=C/C/C=C(\C)[C@H](O)C1,> 100 µM,62.7 µM,86.9 µM,51.6 µM,56.6 µM,> 100 µM,58.4 µM,> 100 µM,57.5 µM,93.6 µM,> 100 µM,–,44.2 µM,93 µM,> 100 µM
Cc1ccc2nc(CN3CCCCC3)cc(=O)n2c1,> 100 µM,> 100 µM,> 100 µM,> 100 µM,> 100 µM,> 100 µM,> 100 µM,> 100 µM,> 100 µM,> 100 µM,> 100 µM,> 100 µM,> 100 µM,> 100 µM,> 100 µM
COc1ccc(-c2cc(=O)c3c(O)c(OC)c(O)cc3o2)cc1O,32.4 µM,43.6 µM,> 100 µM,> 23.6 µM,> 100 µM,> 100 µM,31.4 µM,> 87.1 µM,> 52.7 µM,> 100 µM,> 93.8 µM,> 25.8 µM,20.7 µM,> 100 µM,> 31.8 µM
CCOC(=O)c1c(-c2ccc(Cl)cc2)c(C#N)c(=S)n(C2OC(CO)C(O)C(O)C2O)c1-c1ccccc1 (stereo unspecified),35.3 µM,87.5 µM,72.7 µM,> 100 µM,75.9 µM,40.3 µM,38.2 µM,–,75.1 µM,37.9 µM,96.2 µM,> 100 µM,46.7 µM,> 100 µM,53.9 µM
COC(=O)C(Cc1ccccc1)C(=O)NC(CNC(=O)OCc1ccccc1)C(=O)OCc1ccccc1 (stereo unspecified),77.9 µM,> 100 µM,> 100 µM,50.2 µM,50.3 µM,> 100 µM,49.3 µM,> 100 µM,62.7 µM,48.7 µM,> 100 µM,43.2 µM,43.7 µM,> 94.4 µM,48.9 µM
O=C(/C=C/c1c(O)c2ccccc2[nH]c1=O)CC(=O)C(=O)Nc1cccc(O)c1,> 100 µM,> 100 µM,> 100 µM,> 100 µM,> 100 µM,> 100 µM,> 100 µM,> 100 µM,> 100 µM,> 100 µM,> 100 µM,> 100 µM,> 100 µM,> 100 µM,> 100 µM
CC(C)[Si](OCC/C=C/C1CCC(=O)C1C(O)C1CCCCC1)(C(C)C)C(C)C (stereo unspecified),28 µM,30.7 µM,29 µM,32.8 µM,36.3 µM,31.8 µM,29.7 µM,28.9 µM,29.3 µM,30.9 µM,30.3 µM,29.1 µM,30 µM,30.2 µM,44.6 µM
O=c1[nH]c2nccn2c(Cl)c1Br,> 100 µM,> 100 µM,36.3 µM,> 100 µM,37.4 µM,> 100 µM,43.3 µM,40.3 µM,> 100 µM,35.7 µM,86.9 µM,38.3 µM,42.6 µM,> 100 µM,46.7 µM
CNC(=O)C(C)NC(=O)C(Cc1ccccc1)NC(=O)OC(C)(C)C (stereo unspecified),> 100 µM,> 100 µM,> 100 µM,> 100 µM,> 100 µM,> 100 µM,> 100 µM,> 100 µM,> 100 µM,> 100 µM,> 100 µM,> 100 µM,> 100 µM,> 100 µM,> 100 µM
C=CCN1C(=O)N/C(=C\c2ccc(Cl)cc2)C1=O,> 100 µM,> 100 µM,> 100 µM,> 100 µM,> 100 µM,> 100 µM,> 100 µM,> 100 µM,> 100 µM,> 100 µM,> 100 µM,> 100 µM,> 100 µM,–,> 100 µM
COc1cc(/C=C2\CCC(C)c3c2nc(N)c(C#N)c3-c2cc(OC)c(OC)c(OC)c2)cc(OC)c1OC (stereo unspecified),> 100 µM,–,–,> 100 µM,> 100 µM,–,> 100 µM,> 100 µM,> 100 µM,–,> 100 µM,–,> 100 µM,–,> 100 µM
CCC1=NC(N/N=C/c2ccccc2O)=N/C1=C\c1ccccc1O,39.8 µM,18.7 µM,> 74.7 µM,53.8 µM,> 100 µM,> 100 µM,48.4 µM,> 100 µM,> 72.1 µM,12.6 µM,76.2 µM,85.4 µM,> 61.5 µM,20.4 µM,> 100 µM
C=CCNC(NCC=C)=C(C(Cl)=C(Cl)Cl)[N+](=O)[O-],> 100 µM,> 100 µM,> 100 µM,> 100 µM,> 100 µM,> 100 µM,> 100 µM,> 100 µM,> 100 µM,> 100 µM,> 100 µM,30.7 µM,87.9 µM,> 100 µM,> 100 µM
COCC1OCCN1C (stereo unspecified),> 100 µM,> 100 µM,> 100 µM,> 100 µM,> 100 µM,> 100 µM,> 100 µM,> 100 µM,> 100 µM,> 100 µM,> 100 µM,> 100 µM,> 100 µM,> 100 µM,> 100 µM

Compound,TGI (HCT-116 colon),TGI (NCI-H460 lung),TGI (NCI-H23 lung),TGI (RPMI-8226 leukemia),TGI (MDA-MB-231 breast),TGI (SF-295 CNS),TGI (UACC-62 melanoma),TGI (EKVX NSCLC),TGI (786-0 renal),TGI (OVCAR-3 ovarian),TGI (SK-OV-3 ovarian),TGI (MALME-3M melanoma),TGI (MOLT-4 leukemia),TGI (UO-31 renal),TGI (CCRF-CEM leukemia)
Nc1ccccc1C(=O)NNC(=O)c1ccccc1N,> 100 µM,–,> 100 µM,> 100 µM,> 100 µM,> 100 µM,> 100 µM,> 100 µM,> 100 µM,> 100 µM,> 100 µM,> 100 µM,> 100 µM,> 100 µM,> 100 µM
c1ccc2c(OCC3CO3)ccc(OCC3CO3)c2c1 (stereo unspecified),2.76 µM,12.5 µM,6.67 µM,9.44 µM,22.3 µM,14.1 µM,12.2 µM,32.7 µM,5.57 µM,6.75 µM,26.6 µM,20.5 µM,2.99 µM,3.15 µM,11.2 µM
COc1ccc2c(c1)-c1c(c3ccccc3n1CCN1CCCCC1)CC2,29.5 µM,32.4 µM,38.8 µM,36.3 µM,31.1 µM,34.4 µM,36.5 µM,70.5 µM,41.9 µM,26.1 µM,53 µM,39.3 µM,47.4 µM,30 µM,74 µM
[N-]=[N+]=Nc1cc(=O)n(-c2ccccc2)c(=O)n1-c1ccccc1,> 100 µM,–,> 100 µM,> 100 µM,> 100 µM,> 100 µM,> 100 µM,> 100 µM,> 100 µM,> 100 µM,> 100 µM,> 100 µM,> 100 µM,> 100 µM,> 100 µM
Cc1nc2c(n1CCCl)C(=O)c1ccccc1C2=O,36.6 µM,65.9 µM,92.2 µM,> 100 µM,56.5 µM,62.6 µM,44.2 µM,> 100 µM,> 100 µM,> 100 µM,79.6 µM,19.2 µM,78 µM,–,> 100 µM
CCOC(=O)C1C(C(C)C)C2(C#N)C(=N)OC1(C)C2(C#N)C#N (stereo unspecified),> 100 µM,–,> 100 µM,> 100 µM,> 100 µM,> 100 µM,> 100 µM,> 100 µM,> 100 µM,–,> 100 µM,> 100 µM,–,> 100 µM,> 100 µM
OC1OC(c2ccc[nH]2)C(F)(F)C(F)(F)C1(F)F (stereo unspecified),> 100 µM,> 100 µM,–,> 100 µM,> 100 µM,> 100 µM,> 100 µM,> 100 µM,> 100 µM,> 100 µM,> 100 µM,> 100 µM,> 100 µM,> 100 µM,> 100 µM
CCCN(CCC)C(=S)N/N=C/c1cccc(C)n1,0.196 µM,0.748 µM,> 100 µM,0.546 µM,2.03 µM,7.53 µM,9.45 µM,8.34 µM,1.37 µM,–,15.7 µM,14.9 µM,0.588 µM,12.2 µM,0.275 µM
CC1=C(C(=O)OC23CC4CC(CC(C4)C2)C3)C(c2ccccc2OC(F)F)C(C(=O)OC23CC4CC(CC(C4)C2)C3)=C(C)N1 (stereo unspecified),> 100 µM,> 100 µM,> 100 µM,> 100 µM,> 100 µM,> 100 µM,> 100 µM,–,> 100 µM,> 100 µM,> 100 µM,> 100 µM,> 100 µM,> 100 µM,> 100 µM
C/C(=C\c1csc(C)n1)[C@@H]1C[C@@H]2O[C@]2(C)CCC[C@H](C)[C@H](O)[C@@H](C)C(=O)C(C)(C)[C@@H](O)CC(=O)O1 (tested in a mixture with another compound),> 0.183 µM,> 1 µM,> 1 µM,> 0.172 µM,> 0.346 µM,0.0369 µM,> 1 µM,> 1 µM,> 1 µM,0.0839 µM,> 0.72 µM,> 1 µM,> 0.307 µM,> 1 µM,–
CC(=O)CCC(=O)CC(O)(C(F)(F)F)C(F)(F)F,31.3 µM,38.6 µM,43.2 µM,49.8 µM,35 µM,27.1 µM,32 µM,–,30.2 µM,–,–,32.9 µM,36.6 µM,27.8 µM,51 µM
C#CCOC(=O)C(N)CS (stereo unspecified),> 100 µM,–,> 100 µM,> 100 µM,> 100 µM,> 100 µM,> 100 µM,> 100 µM,> 100 µM,> 100 µM,> 100 µM,> 100 µM,> 100 µM,> 100 µM,> 100 µM
Cc1cc2c(cc1Cl)SC(NNC(=O)c1ccncc1)=NS2(=O)=O,> 10 µM,> 10 µM,> 10 µM,> 10 µM,> 10 µM,> 10 µM,> 10 µM,> 10 µM,> 10 µM,> 10 µM,> 10 µM,> 10 µM,> 10 µM,–,> 10 µM
Cc1cc(Cl)ccc1NC(=O)/C(CC(=O)CC(c1ccccc1)c1c(O)c2ccccc2oc1=O)=N\O (stereo unspecified),> 100 µM,> 100 µM,> 100 µM,–,> 100 µM,> 100 µM,> 100 µM,> 100 µM,> 100 µM,> 100 µM,> 100 µM,–,> 100 µM,> 100 µM,> 100 µM
CN(C)Cc1cc(C(=O)/C=C/c2c(Cl)cccc2Cl)cc(CN(C)C)c1O,19.6 µM,13 µM,34.2 µM,39 µM,15.1 µM,23.1 µM,–,23.2 µM,16.2 µM,23.6 µM,–,15.7 µM,30.3 µM,8.85 µM,59 µM
CC1=C/C(=N\N(C)C)C(C(O)(C(F)(F)F)C(F)(F)F)C(C)(C)C1 (stereo unspecified),> 100 µM,> 100 µM,> 100 µM,> 100 µM,> 100 µM,> 100 µM,> 100 µM,> 100 µM,> 100 µM,87.8 µM,–,> 100 µM,> 100 µM,> 100 µM,> 100 µM
